Where two headings read alike, the source gives them in different places.
Columns and labels:
[1] = test system: rBMEC (primary cultured rat brain microvascular endothelial cells); assay: Uptake of Rb1 by primary cultured rBMEC (time course, temperature, concentration dependence, Michaelis-Menten kinetics); format: in vitro ADME
Protocol: Isolation and culture of rat brain microvessel endothelial cells were operated according to previous studies with some modifications ([Liu et al., 2013]). The isolated rBMEC was seeded in cultured flasks coated with 2% gelatin and cultured in culture medium. The culture medium consisted of DMEM/F12 supplemented with 20% FBS, 2 mM L-glutamine, heparin (50 mg/L), 100 IU/mL penicillin, 100 μg/mL streptomycin, and NaHCO3 (0.5 g/L). On the first day after seeding, the culture medium was replaced, after which the culture medium was replaced every 2 days. At 5–6 days, the rBMEC was transferred to 6-well plates coated with gelatin and cultured in an incubator with a saturated humidity at 37°C in 5% CO2 and 95% air. Transport studies were performed when cells reached 100% confluency. The endothelial phenotype of the rBMEC was identified by staining for the endothelial cell marker vWF using a confocal laser scanning microscope (Leica TCS SP8).
When rBMEC was grown to 100% confluency in gelatin-coated 6-well plates, uptake experiments were performed. Briefly, the cultured cell monolayer was washed three times with 1 mL of pH 7.4 Hanks’ balanced salt solution (HBSS). The cultured rBMEC was pre-incubated for 30 min in 1 mL HBSS at 37 or 4°C. After pre-incubation, the HBSS solution was removed by suction, and HBSS (1 mL) containing 60 μg/mL Rb1 was added to initiate uptake. Then the cells were incubated at 37 or 4°C at a set time (5, 10, 15, 30, 60, 120, and 240 min). After the end of the incubation, the incubation solution was aspirated and the monolayers were carefully washed three times with 1 mL ice-cold HBSS to terminate the uptake. Then, 0.5 mL ultrapure water was added to each incubated well, and the material in the wells was frozen (at -80°C)/thawed (at room temperature) repeatedly four times to lyse cells. After the solubilized, the monolayer supernatants were collected and 10 μL was injected into LC–MS/MS to determine Rb1 concentration. The protein contents of the cell monolayers were measured by the method of Bradford using BSA as the standard ([Bradford, 1976]). Uptake was expressed as the cell-to-medium ratio (μL/mg protein or μL/mg protein/min) and termed the volume of distribution (Vd), obtained by dividing the uptake amount by the concentration of substrate in the transport medium. Vd is derived from the ratio of ng/mg protein to ng/μL buffer.
The uptake data were fitted to the above equation by nonlinear least-squares regression analysis with Graphpad Prism 5.0 software.
(§1) HPLC–MS/MS was composed by a Shimadzu LC-20A chromatographic system and an API 4000 mass spectrometer equipped with electrospray ionization (ESI) source system. MS/MS detection was performed on an API 4000 mass spectrometer using multiple reaction monitoring (MRM) mode by monitoring the fragmentation of m/z 1107.6 → 179.0 for Rb1 and m/z 779.4 → 345.2 for digoxin (IS). Chromatographic separations were carried out on a Shim-pack XD-ODS column (2.0 mm × 30 mm, 2.2 μm) with a Shim-pack GVD-ODS (2.0 mm × 5 mm, 4.6 μm) guard column (Shimadzu, Japan) at a flow rate of 0.28 mL/min using 10 mM acetic acid in water (phase A) and methanol (phase B) as mobile phase. A linear step gradient elution was performed as followed: phase B was increased from 45 to 90% within the first 3 min, and decreased to 45% within the next 3 min (total gradient time: 6 min). A 10 μL sample was injected into the system with the auto-sample conditioned at 4°C and column temperature maintained at 40°C.
The biological samples (100 μL) were placed in a 1.5 mL Eppendorf tube, and mixed with 10 μL IS solution (500 ng/mL) for 3 min by vortexing. The mixture was extracted with methanol (0.9 mL) by vortexing, and then centrifuged at 14,000 rpm for 5 min. The supernatant (0.8 mL) was transferred to a new 1.5 mL Eppendorf tube and evaporated to dryness under vacuum. The dried residue was reconstituted with 100 μL methanol, vortex-mixed for 30 s, and centrifuged at 14,000 rpm for 5 min. […]

[2] = parameters: method as in Li et al., 2007; conditions: rats, TPNS injection 10.0 mg/kg intravenous; ref Li et al., 2007; cited from earlier work
[3] = Effect of phloretin on distribution of Rb1 in plasma and brain of normal rats; format: in vivo, rat; conditions: Rb1 10 mg/kg i.v.; for concentration at 0.5 h / concentration at 2 h / concentration at 6 h: rat
Protocol: Rats were randomly divided into two groups in 36 of each group. One group served as the control and another group were treated with phloretin. Dose of phloretin was set to be 5 mg/kg. Rb1 (10 mg/kg, i.v.) was administered to the experimental rats after i.v. administration of phloretin or saline for consecutive 1 week. Six rats from each group were selected and the blood samples were collected into heparinized Eppendorf tubes via the abdominal aorta at 0.5, 2, and 6 h after Rb1 administration. Then, brain samples were immediately collected. The plasma samples were obtained by centrifuging at 1000 × g for 10 min. Plasma and brain samples were frozen at -80°C until analysis.
as §1
The biological samples (100 μL) were placed in a 1.5 mL Eppendorf tube, and mixed with 10 μL IS solution (500 ng/mL) for 3 min by vortexing. The mixture was extracted with methanol (0.9 mL) by vortexing, and then centrifuged at 14,000 rpm for 5 min. The supernatant (0.8 mL) was transferred to a new 1.5 mL Eppendorf tube and evaporated to dryness under vacuum. The dried residue was reconstituted with 100 μL methanol, vortex-mixed for 30 s, and centrifuged at 14,000 rpm for 5 min. Finally, 10 μL of the supernatant liquid was immediately subjected to HPLC–MS/MS analysis. The system control and data analysis were performed by AB Sciex Analyst software (the software version: Analyst 1.5.1). Retention time for Rb1 was tR = 3.80 ± 0.01 min and for IS digoxin tR = 3.13 ± 0.01 min. The lowest limits of quantitation of Rb1 in cell lysate, plasma, and brain homogenate were 1, 2.5, and 1 ng/mL, respectively. The recoveries were higher than 90%; the relative standard deviations (SD) of intra-day and inter-day were lower than 10%.

[4] = 7.5-960 μg/mL Rb1, 37°C, 120 min, Michaelis-Menten fit

CC(C)=CCC[C@](C)(O[C@@H]1O[C@H](CO[C@@H]2O[C@H](CO)[C@@H](O)[C@H](O)[C@H]2O)[C@@H](O)[C@H](O)[C@H]1O)[C@H]1CC[C@]2(C)[C@@H]1[C@H](O)C[C@@H]1[C@@]3(C)CC[C@H](O[C@@H]4O[C@H](CO)[C@@H](O)[C@H](O)[C@H]4O[C@@H]4O[C@H](CO)[C@@H](O)[C@H](O)[C@H]4O)C(C)(C)[C@@H]3CC[C@]12C [Rb1, Ginsenoside Rb1]
intracellular amounts of Rb1 at 37°C relative to 4°C ([1]; 60 μg/mL Rb1): about two to threefold
time at which steady-state uptake occurred ([1]; 60 μg/mL Rb1, 37°C): 120 min
Km [1, 4]: 119 ± 15.6 µM
Vmax of Rb1 uptake [1, 4]: 0.0034 ± 0.0003 nmol/(mg protein ⋅ min)
nonsaturable component (Pdiff) of Rb1 transport ([1]; 37°C): 0.0023 μL/(mg protein ⋅ min)
share of total Rb1 uptake accounted for by the saturable component ([1]; low concentration range): 90%
duration in brain tissue [2]: ~24 h
largest content in brain tissue [2]: about 1.4 μg/g
Brain-to-plasma concentration ratio (Kp) ([3]; 0.5 h, phloretin-treated (5 mg/kg i.v., 1 week)): 2.15 ± 0.19 μL/g brain
Brain-to-plasma concentration ratio (Kp) ([3]; 0.5 h, untreated normal rats): 7.09 ± 1.01 μL/g brain
Brain-to-plasma concentration ratio (Kp) ([3]; 2 h, phloretin-treated (5 mg/kg i.v., 1 week)): 2.56 ± 0.06 μL/g brain
Brain-to-plasma concentration ratio (Kp) ([3]; 2 h, untreated normal rats): 4.9 ± 0.35 μL/g brain
Brain-to-plasma concentration ratio (Kp) ([3]; 6 h, phloretin-treated (5 mg/kg i.v., 1 week)): 1.59 ± 0.005 μL/g brain
Brain-to-plasma concentration ratio (Kp) ([3]; 6 h, untreated normal rats): 3.24 ± 0.53 μL/g brain
concentration at 0.5 h ([3]; brain, intravenous, 0.5 h, phloretin-treated (5 mg/kg i.v., 1 week), read-out: Brain concentration): 105 ± 15.1 ng/g
concentration at 2 h ([3]; brain, intravenous, 2 h, phloretin-treated (5 mg/kg i.v., 1 week), read-out: Brain concentration): 84.8 ± 4.1 ng/g
concentration at 6 h ([3]; brain, intravenous, 6 h, phloretin-treated (5 mg/kg i.v., 1 week), read-out: Brain concentration): 39.9 ± 4.9 ng/g
concentration at 0.5 h ([3]; brain, iv, 0.5 h, untreated normal rats, read-out: Brain concentration): 490 ± 58.3 ng/g
concentration at 2 h ([3]; brain, iv, 2 h, untreated normal rats, read-out: Brain concentration): 194 ± 11.1 ng/g
concentration at 6 h ([3]; brain, iv, 6 h, untreated normal rats, read-out: Brain concentration): 114 ± 24 ng/g
concentration at 0.5 h ([3]; plasma, intravenous, 0.5 h, phloretin-treated (5 mg/kg i.v., 1 week), read-out: Plasma concentration): 48700 ± 2900 ng/mL
concentration at 2 h ([3]; plasma, intravenous, 2 h, phloretin-treated (5 mg/kg i.v., 1 week), read-out: Plasma concentration): 33200 ± 1400 ng/mL
concentration at 6 h ([3]; plasma, intravenous, 6 h, phloretin-treated (5 mg/kg i.v., 1 week), read-out: Plasma concentration): 27000 ± 1500 ng/mL
concentration at 0.5 h ([3]; plasma, iv, 0.5 h, untreated normal rats, read-out: Plasma concentration): 69300 ± 4500 ng/mL
concentration at 2 h ([3]; plasma, iv, 2 h, untreated normal rats, read-out: Plasma concentration): 39700 ± 4100 ng/mL
concentration at 6 h ([3]; plasma, iv, 6 h, untreated normal rats, read-out: Plasma concentration): 35200 ± 3000 ng/mL
